# Test results from PMC10011331, “Vitamin C transporter SVCT1 serves a physiological role as a urate importer: functional analyses and in vivo investigations” (Pflugers Archiv, 2023).
# Tests used:
# Format in all cases: cell-based
# SVCT1 [1] = molecular target: T1, SVCT1 (Homo sapiens, UniProt Q9UHI7); assay: inhibition of […]-vitamin C uptake in SVCT1-expressing […] cells (urate uptake IC50 […])
# T1 construct: gene SLC23A1
# SVCT1 [2] = molecular target: T1, SVCT1; assay: as above; remark: listed apart in the source
# SVCT1 [3] = molecular target: T1, SVCT1; assay: as above; remark: listed apart in the source
# ABCG2 = molecular target: T2, ABCG2 (Homo sapiens, UniProt Q9UNQ0)
# T2 construct: EGFP-ABCG2 in plasma membrane vesicles from 293A cells
# T2 sequence (Q9UNQ0 1-655): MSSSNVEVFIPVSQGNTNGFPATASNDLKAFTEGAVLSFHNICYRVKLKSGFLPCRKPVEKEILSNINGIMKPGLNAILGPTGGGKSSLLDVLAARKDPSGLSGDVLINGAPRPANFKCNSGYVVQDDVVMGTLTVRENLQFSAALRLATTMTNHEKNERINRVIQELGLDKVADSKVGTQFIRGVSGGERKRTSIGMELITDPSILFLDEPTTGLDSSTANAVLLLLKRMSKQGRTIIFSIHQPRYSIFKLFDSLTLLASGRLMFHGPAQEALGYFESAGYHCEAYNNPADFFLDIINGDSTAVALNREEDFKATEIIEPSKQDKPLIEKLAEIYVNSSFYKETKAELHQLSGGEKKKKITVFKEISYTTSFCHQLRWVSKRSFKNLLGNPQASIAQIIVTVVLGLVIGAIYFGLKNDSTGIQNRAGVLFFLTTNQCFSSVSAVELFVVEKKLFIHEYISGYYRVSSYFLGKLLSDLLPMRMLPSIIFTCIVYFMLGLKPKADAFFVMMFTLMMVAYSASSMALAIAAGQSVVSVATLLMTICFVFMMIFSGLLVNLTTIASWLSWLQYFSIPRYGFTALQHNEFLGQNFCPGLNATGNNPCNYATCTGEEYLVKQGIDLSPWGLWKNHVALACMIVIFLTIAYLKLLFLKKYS
# GLUT9a = molecular target: T3, GLUT9a (Homo sapiens, UniProt Q9NRM0); assay: [[…]-14C]-urate uptake in GLUT9a-expressing cells, high-potassium buffer
# T3 construct: gene SLC2A9; full-length human GLUT9a/SLC2A9a WT in pEGFP-N1
# T3 sequence (Q9NRM0 1-540): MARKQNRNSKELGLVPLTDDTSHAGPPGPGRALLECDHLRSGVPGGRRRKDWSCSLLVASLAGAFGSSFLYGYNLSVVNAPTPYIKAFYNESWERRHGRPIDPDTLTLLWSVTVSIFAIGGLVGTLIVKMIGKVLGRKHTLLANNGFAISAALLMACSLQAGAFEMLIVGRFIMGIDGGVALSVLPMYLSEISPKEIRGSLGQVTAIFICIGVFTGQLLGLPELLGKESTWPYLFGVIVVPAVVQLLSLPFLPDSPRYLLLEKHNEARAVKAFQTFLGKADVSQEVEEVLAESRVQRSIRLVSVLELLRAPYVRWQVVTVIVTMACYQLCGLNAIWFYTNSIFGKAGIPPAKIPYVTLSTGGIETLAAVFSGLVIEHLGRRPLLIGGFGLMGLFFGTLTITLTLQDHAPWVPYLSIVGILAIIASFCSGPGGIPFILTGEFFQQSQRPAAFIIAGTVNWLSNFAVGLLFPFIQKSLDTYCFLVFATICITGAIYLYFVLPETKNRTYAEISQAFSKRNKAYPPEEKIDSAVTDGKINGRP
# URAT1 = molecular target: T4, URAT1 (Homo sapiens, UniProt Q96S37); assay: [[…]-14C]-urate uptake in URAT1-expressing HEK293 cells
# T4 construct: gene SLC22A12; full-length human URAT1 WT in pEGFP-C1
# T4 sequence (Q96S37 1-553): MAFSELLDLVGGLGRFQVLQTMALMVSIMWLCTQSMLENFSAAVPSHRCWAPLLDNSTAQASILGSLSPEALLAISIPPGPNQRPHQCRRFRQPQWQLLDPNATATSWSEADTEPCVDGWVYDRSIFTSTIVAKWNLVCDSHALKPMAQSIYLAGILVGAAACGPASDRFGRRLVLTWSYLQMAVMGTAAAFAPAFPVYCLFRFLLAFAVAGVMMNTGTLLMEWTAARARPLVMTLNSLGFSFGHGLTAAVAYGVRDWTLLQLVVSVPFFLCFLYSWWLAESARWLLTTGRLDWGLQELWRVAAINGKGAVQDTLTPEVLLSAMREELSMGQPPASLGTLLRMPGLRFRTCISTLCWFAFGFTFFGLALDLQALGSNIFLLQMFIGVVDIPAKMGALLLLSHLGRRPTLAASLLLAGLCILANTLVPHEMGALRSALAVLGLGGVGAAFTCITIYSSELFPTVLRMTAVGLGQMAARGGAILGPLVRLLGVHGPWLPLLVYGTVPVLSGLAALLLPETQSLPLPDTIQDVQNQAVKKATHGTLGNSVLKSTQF
# Svct1 [4] = molecular target: T5, Svct1 (Mus musculus, UniProt Q9Z2J0); assay: […]-vitamin C uptake and inhibition of […]-urate uptake in Svct1-expressing HEK293 cells
# T5 construct: gene Slc23a1; mouse Svct1 WT, EGFP fusion
# SVCT1 [5] = molecular target: T1, SVCT1; assay: […]-vitamin C uptake and inhibition of […]-urate uptake in SVCT1-expressing HEK293 cells
# T1 sequence (Q9UHI7 whole entry): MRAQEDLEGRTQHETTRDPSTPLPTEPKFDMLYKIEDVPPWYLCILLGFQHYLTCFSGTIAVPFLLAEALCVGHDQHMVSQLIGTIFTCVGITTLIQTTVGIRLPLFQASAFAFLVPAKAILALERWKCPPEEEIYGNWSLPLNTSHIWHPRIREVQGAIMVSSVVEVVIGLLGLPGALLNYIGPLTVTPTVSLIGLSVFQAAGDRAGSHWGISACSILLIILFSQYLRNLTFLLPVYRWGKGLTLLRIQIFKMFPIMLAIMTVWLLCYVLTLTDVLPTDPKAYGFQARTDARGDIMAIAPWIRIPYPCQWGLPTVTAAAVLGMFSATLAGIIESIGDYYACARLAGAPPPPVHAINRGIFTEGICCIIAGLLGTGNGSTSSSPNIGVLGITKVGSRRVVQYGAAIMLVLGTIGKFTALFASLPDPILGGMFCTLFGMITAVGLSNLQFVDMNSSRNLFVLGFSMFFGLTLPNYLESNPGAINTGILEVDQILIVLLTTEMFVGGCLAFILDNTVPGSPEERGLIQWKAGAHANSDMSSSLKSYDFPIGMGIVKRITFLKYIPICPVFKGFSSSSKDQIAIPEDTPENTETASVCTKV
# T5 sequence (Q9Z2J0 whole entry, the tested form may be a part): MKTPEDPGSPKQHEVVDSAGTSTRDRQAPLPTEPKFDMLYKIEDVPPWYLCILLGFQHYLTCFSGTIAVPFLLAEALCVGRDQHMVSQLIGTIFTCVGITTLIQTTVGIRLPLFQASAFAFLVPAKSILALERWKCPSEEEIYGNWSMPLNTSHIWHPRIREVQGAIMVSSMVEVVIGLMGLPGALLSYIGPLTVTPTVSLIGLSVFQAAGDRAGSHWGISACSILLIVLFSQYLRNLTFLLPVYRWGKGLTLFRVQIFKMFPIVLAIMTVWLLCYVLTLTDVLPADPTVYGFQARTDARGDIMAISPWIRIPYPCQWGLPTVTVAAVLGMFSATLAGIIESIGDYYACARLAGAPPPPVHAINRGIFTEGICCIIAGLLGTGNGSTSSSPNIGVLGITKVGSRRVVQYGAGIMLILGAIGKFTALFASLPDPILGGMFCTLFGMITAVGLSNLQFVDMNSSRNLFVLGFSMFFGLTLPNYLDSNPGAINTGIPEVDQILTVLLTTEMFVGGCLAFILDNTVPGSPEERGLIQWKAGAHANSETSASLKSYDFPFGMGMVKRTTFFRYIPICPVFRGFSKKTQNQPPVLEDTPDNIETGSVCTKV
smiles,measurement,setting,value
"CCc1oc2cc(O)ccc2c1C(=O)c1cc(Br)c(O)c(Br)c1 [6-OH BBR, 6-hydroxybenzbromarone]",IC50,SVCT1 [1],2.86 µM
"CCc1oc2ccccc2c1C(=O)c1cc(Br)c(O)c(Br)c1 [BBR, benzbromarone]",IC50,SVCT1 [2],8.39 µM
"O=C(c1cc(Cl)c(O)c(Cl)c1)N1CS(=O)(=O)c2ccccc21 [DU, dotinurad]",IC50,SVCT1 [3],11.8 µM
O=c1[nH]c(=O)c2[nH]c(=O)[nH]c2[nH]1 [urate],[8-14C]-urate vesicle transport assay with ABCG2-expressing membrane vesicles,ABCG2,"Even under appropriate experimental conditions in which urate transport activities were detected, neither URAT1, GLUT9, nor ABCG2 could transport vitamin C"
same,"[8-14C]-urate uptake in GLUT9a-expressing cells, high-potassium buffer",GLUT9a,"Even under appropriate experimental conditions in which urate transport activities were detected, neither URAT1, GLUT9, nor ABCG2 could transport vitamin C"
same,[8-14C]-urate uptake in URAT1-expressing HEK293 cells,URAT1,"Even under appropriate experimental conditions in which urate transport activities were detected, neither URAT1, GLUT9, nor ABCG2 could transport vitamin C"
O=C1O[C@H]([C@@H](O)CO)C(O)=C1O [vitamin C],IC50,Svct1 [4],130 µM
same,IC50,SVCT1 [5],95.1 µM
